Where two headings read alike, the source gives them in different places. Bounds are passed on as bounds.

One experiment concerns MiaPaca-2. The experiment in a line: MTT cytotoxicity assay, MiaPaca-2. The class given is cell-based. Conditions: Homo sapiens, read-out: IC50 MiaPaca-2. From the text: (§1) Anticancer assays: Five tumor cell lines (MiaPaca-2 (CRL-1420), a carcinoma pancreatic […]; Hep G2 (HB-80665), a perpetual cell line which was derived from the liver tissue of a […] with a well-differentiated hepatocellular carcinoma; A549 (CCL-185), a carcinoma lung from […]; A2058 (CRL-11147), Human skin melanoma from an adult derived from lymph node and MCF-7 (HTB-22), a breast adenocarcinoma […]) were obtained from ATCC. The MTT (3-(4,5-dimethylthiazol-2-yl)-2,5-diphenyltetrazoliumbromide) colorimetric assay, which measures mitochondrial metabolic activity, was employed to estimate the amount of living cells. According to the huge amount of celles to be plated, SelecT (TAP Biosystems, Royston, UK), a cell culture robotic system was used to process ten thousand cells per well (for 72 h assay). Cells were seeded at a concentration of 1× 10^4 cells/well in 200 μl culture medium and incubated at 37 °C in 5% CO2. After 24 h, the automated liquid-handling system Biomek FX (Beckman Coulter, Pasadena, CA, USA) was used to replace the medium with a final volume of 200 μL and 1 μL of compound (dilution 1/200) and to add controls to the plates and which were then be incubated for 72 h. The test compounds were examined in triplicate with serial two-fold dilutions. After incubation, MTT solution was prepared at 5 mg/mL in PBS 1X and then diluted at 0.5 mg/mL in MEM without phenol red. The sample solution in wells was removed and 100 μL of MTT dye was added to each well. The plates were gently shaken and incubated for 3 h at 37 °C in 5% CO2 incubator. The supernatant was removed and 100 μL of DMSO 100% was added. The plates were gently shaken to solubilize theoriginated formazan and absorbance at 570 nm was read in a Victor2 Wallac spectrofluorometer (PerkinElmer, Waltham, MA, USA). IC50 values were calculated as the concentration that decreases 50% of the cell viability using Genedata Screener software (Genedata AG, Basel, Switzerland). Curve fitting followed the Smart Fit strategy with Hill model selection.

The subject of the next experiment is P. falciparum strain 3D7. The experiment is described as follows: P. falciparum 3D7 lactate dehydrogenase assay. The experiment is classed as cell-based, Plasmodium falciparum. Conditions: for IC50: read-out: IC50 against P. falciparum; for times more active than natural precursor quercetin 3-O-α-L-rhamnopyranoside (2) against P. falciparum: antiplasmodial activity, strain 3D7; for SI = IC50 HepG2 cell/IC50 P. falciparum: selectivity index, HepG2 vs P. falciparum. The procedure: P. falciparum 3D7 lactate dehydrogenase assay: Parasites of the P. falciparum strain 3D7 were grown in fresh group 0 positive human erythrocytes, obtained from the Centro Regional de Transfusion Sanguınea-SAS (Granada, Spain). This assay was performed in duplicate for each compound using a sixteen (16) point dose response curve (½ serial dilutions) with concentrations starting from 50 μM until 1.5 nM to determine the IC50s of the compounds. Adding 25 μL of P. falciparum 3D7 parasite culture (per well) containing parasitized red blood cells at 0.25% parasitaemia and 2% haematocrit in RPMI-1640, 5% Albumax II, 2% […] 0.3% glutamine and 150 μM hypoxanthine and incubated at 37 °C for 72 h with 5% CO2, 5% O2 and 95% N2. For negative and positive growth controls, 10 μM chloroquine and complete parasite growth medium were respectively used. The final readouts of the assay was done by measuring the absorbance of the reactions at 650 nm in an Envision plate reader (Perkin Elmer, USA) and the results analysed by Genedata software (GenedataAG, Basel, Switzerland), parasite growth was measured by LDH assay as previously described.
The natural compounds isolated from the leaves of A. zygia as well as their semi-synthetic derivatives were tested against Plasmodium falciparum (Table 1) using a microdilution method in liquid medium as previously described.

Another experiment concerns A-549. The experiment is described as follows: MTT cytotoxicity assay, A-549. The conditions noted are these: Homo sapiens, read-out: IC50 A-549. The class given is cell-based.
Text: as §1

The next experiment deals with HepG2. The experiment in a line: MTT cytotoxicity assay, HepG2. The class given is cell-based. Conditions: Homo sapiens, read-out: IC50 HepG2.
Text: as §1

Another experiment concerns A2058. The experiment in a line: MTT cytotoxicity assay, A2058. The experiment is classed as cell-based. Conditions: Homo sapiens, A2058, 72 h, read-out: IC50 A2058.
Text: as §1

The test system of the next experiment is MCF-7. The experiment is described as follows: MTT cytotoxicity assay, MCF-7. The conditions noted are these: Homo sapiens, MCF7, 72 h, read-out: IC50 MCF-7. The experiment is classed as cell-based.
Text: as §1

The mark [1] stands for this setting: Plasmodium falciparum, 3D7, 72 h, strain 3D7, 72 h, LDH readout.
[2] abbreviates: Plasmodium falciparum, 3D7, 72 h.

In the case of `O=C(O)Cc1ccc(O)cc1OC1OC(CO)C(O)C(O)C1O` [Compound 1, 2-O-β-D-glucopyranosyl-4-hydroxyphenylacetic acid], the IC50 is 30.3 ± 0.25 µM in the experiment on MiaPaca-2 (MIA PaCa-2, MTT, 72 h); over 100 µM in the experiment on P. falciparum strain 3D7 (setting [1]); 121.2 ± 0.25 µM in the experiment with A-549 (A549, MTT, 72 h); 121.2 ± 0.25 µM in the experiment with HepG2 (HepG2, MTT, 72 h); 66.7 ± 0.25 µM with A2058 (MTT, 72 h); 42.7 ± 0.25 µM in the experiment with MCF-7 (MTT, 72 h).
Turning to `C[C@@H]1O[C@@H](Oc2ccc(-c3oc4cc(O)cc(O)c4c(=O)c3O[C@@H]3O[C@@H](C)[C@H](O)[C@@H](O)[C@H]3O)cc2)[C@H](O)[C@H](O)[C@H]1O` [Compound 5, kaempferol 3,4′-di-O-α-L-rhamnopyranoside], the IC50 in the experiment on MiaPaca-2 (MIA PaCa-2, MTT, 72 h) is 16.8 ± 0.25 µM; in the experiment with P. falciparum strain 3D7 (setting [1]), over 100 µM; in the experiment with A-549 (A549, MTT, 72 h) it was 33.7 ± 0.25 µM; in the experiment with HepG2 (HepG2, MTT, 72 h) it was 16.8 ± 0.25 µM; in the experiment on A2058 (MTT, 72 h), 33.7 ± 0.25 µM; in the experiment on MCF-7 (MTT, 72 h) it was 33.7 ± 0.25 µM.
Take `C[C@@H]1O[C@@H](Oc2ccc(-c3oc4cc(O)cc(O)c4c(=O)c3O[C@@H]3O[C@@H](C)[C@H](O)[C@@H](O)[C@H]3O)cc2O)[C@H](O)[C@H](O)[C@H]1O` [Compound 4, quercetin 3,4′-di-O-α-L-rhamnopyranoside]: the IC50 in the experiment with MiaPaca-2 (MIA PaCa-2, MTT, 72 h) was 17.3 ± 0.25 µM; in the experiment on P. falciparum strain 3D7 (setting [1]), over 100 µM; with A-549 (A549, MTT, 72 h) it was 34.6 ± 0.25 µM; in the experiment on HepG2 (HepG2, MTT, 72 h), 17.3 ± 0.25 µM; in the experiment on A2058 (MTT, 72 h), 34.6 ± 0.25 µM; in the experiment with MCF-7 (MTT, 72 h), 17.3 ± 0.25 µM.
Take `CC(=O)Oc1cc(O)c2c(=O)c(OC3OC(C)C(OC(C)=O)C(OC(C)=O)C3OC(C)=O)c(-c3ccc(O)c(O)c3)oc2c1` (stereo not shown) [Compound 10]: the IC50 is 64.9 ± 0.25 µM with MiaPaca-2 (MIA PaCa-2, MTT, 72 h); 6.77 ± 0.25 µM in the experiment with P. falciparum strain 3D7 (setting [1]); 6.8 ± 0.25 µM with P. falciparum strain 3D7 (strain 3D7, 72 h, LDH readout); 30.5 ± 0.25 µM with A-549 (A549, MTT, 72 h); 64.9 ± 0.25 µM in the experiment with HepG2 (HepG2, MTT, 72 h). Further, the “times more active than natural precursor quercetin 3-O-α-L-rhamnopyranoside (2) against P. falciparum” value in the experiment on P. falciparum strain 3D7 is reported as “over 3 times”.
In the case of `COc1cccc2c1C(=O)c1c(O)c3c(c(O)c1C2=O)C[C@@](O)(C(=O)CO)C[C@@H]3O[C@H]1C[C@H](N)[C@H](O)[C@H](C)O1` [Doxorubicin, reference compound], the IC50 in the experiment with MiaPaca-2 (MIA PaCa-2, MTT, 72 h) was under 7e-05 µM; with A-549 (A549, MTT, 72 h), under 7e-05 µM; in the experiment with HepG2 (HepG2, MTT, 72 h), under 7e-05 µM; in the experiment with A2058 (MTT, 72 h) it was under 7e-05 µM; with MCF-7 (MTT, 72 h) it was under 7e-05 µM.
As to `CC(=O)OC1C(C)OC(Oc2c(-c3ccc(O)c(O)c3)oc3cc(O)cc(O)c3c2=O)C(OC(C)=O)C1OC(C)=O` (stereo not shown) [Compound 9], the IC50 in the experiment on MiaPaca-2 (MIA PaCa-2, MTT, 72 h) worked out at 17.4 ± 0.25 µM; in the experiment with P. falciparum strain 3D7 (setting [1]) it was 7.47 ± 0.25 µM; in the experiment on P. falciparum strain 3D7 (strain 3D7, 72 h, LDH readout), 7.5 ± 0.25 µM; in the experiment with A-549 (A549, MTT, 72 h), 34.8 ± 0.25 µM; in the experiment with HepG2 (HepG2, MTT, 72 h) it was 22.6 ± 0.25 µM; in the experiment with A2058 (MTT, 72 h) it was 12.2 ± 0.25 µM. In addition, the IC50 with MCF-7 (MTT, 72 h) was found to be 10.8 ± 0.25 µM. In addition, the “times more active than natural precursor quercetin 3-O-α-L-rhamnopyranoside (2) against P. falciparum” value in the experiment on P. falciparum strain 3D7 is “over 3 times”.
As to `CC(=O)OCC1OC(Oc2cc(OC(C)=O)ccc2CC(=O)O)C(OC(C)=O)C(OC(C)=O)C1OC(C)=O` (stereo not shown) [Compound 8], the IC50 is 18.5 ± 0.25 µM in the experiment with MiaPaca-2 (MIA PaCa-2, MTT, 72 h); over 100 µM with P. falciparum strain 3D7 (setting [1]); 20.1 ± 0.25 µM in the experiment with A-549 (A549, MTT, 72 h); 40.2 ± 0.25 µM in the experiment on HepG2 (HepG2, MTT, 72 h); 40.2 ± 0.25 µM in the experiment with A2058 (MTT, 72 h); 40.2 ± 0.25 µM in the experiment with MCF-7 (MTT, 72 h).
Consider `CCN(CC)CCCC(C)Nc1ccnc2cc(Cl)ccc12` (stereo not shown) [Chloroquine, chloroquine, reference compound], for which, in the experiment with P. falciparum strain 3D7 (setting [2]), the IC50 came to 0.00296 µM.
On to `C[C@@H]1O[C@@H](Oc2c(-c3ccc(O)c(O)c3)oc3cc(O)cc(O)c3c2=O)[C@H](O)[C@H](O)[C@H]1O` [Compound 2, quercetin 3-O-α-L-rhamnopyranoside], for which the IC50 in the experiment with MiaPaca-2 (MIA PaCa-2, 72 h) turned out to be 87.5 ± 0.25 µM; with P. falciparum strain 3D7 (setting [2]) it was 25.1 ± 0.25 µM; in the experiment on A-549 (A549, 72 h), 89.5 ± 0.25 µM; in the experiment on HepG2 (HepG2, 72 h), 87.5 ± 0.25 µM; with A2058, 87.5 ± 0.25 µM; with MCF-7, 87.5 ± 0.25 µM. In the experiment on P. falciparum strain 3D7, the “SI = IC50 HepG2 cell/IC50 P. falciparum” value is “(3.49)”.
Take `CC(=O)OCC1OC(Oc2cc(O)ccc2CC(=O)O)C(OC(C)=O)C(OC(C)=O)C1OC(C)=O` (stereo not shown) [Compound 7]: the IC50 is 10 ± 0.25 µM with MiaPaca-2 (MIA PaCa-2, MTT, 72 h); over 100 µM with P. falciparum strain 3D7 (setting [1]); 20.1 ± 0.25 µM in the experiment on A-549 (A549, MTT, 72 h); 37 ± 0.25 µM with HepG2 (HepG2, MTT, 72 h); 37 ± 0.25 µM with A2058 (MTT, 72 h); 37 ± 0.25 µM in the experiment on MCF-7 (MTT, 72 h).
With `C[C@@H]1O[C@@H](Oc2c(-c3ccc(O)cc3)oc3cc(O)cc(O)c3c2=O)[C@H](O)[C@H](O)[C@H]1O` [Compound 3, kaempferol 3-O-α-L-rhamnopyranoside], the IC50 in the experiment with MiaPaca-2 (MIA PaCa-2, MTT, 72 h) worked out at 46.4 ± 0.25 µM; in the experiment on P. falciparum strain 3D7 (setting [1]) it was 19 ± 0.25 µM; in the experiment with A-549 (A549, MTT, 72 h), 23.2 ± 0.25 µM; with HepG2 (HepG2, MTT, 72 h), 23.2 ± 0.25 µM; with A2058 (MTT, 72 h), 46.4 ± 0.25 µM; with MCF-7 (MTT, 72 h) it was 46.4 ± 0.25 µM. For the same compound, the “SI = IC50 HepG2 cell/IC50 P. falciparum” value in the experiment on P. falciparum strain 3D7 is on record as “(1.22)”.

Values taken from PMC7076739, “Cytotoxycity and antiplasmodial activity of phenolic derivatives from Albizia zygia (DC.) J.F. Macbr. (Mimosaceae)” (BMC Complementary Medicine and Therapies, 2020).
